Laboratory results as given in publication PMC9419992 (Organic letters, 2022).

Experiments:
[1] = molecular target: T1, LXRα [NR1H3] ligand binding domain (Homo sapiens, UniProt Q13133); assay: Radioligand binding assay with 3H-T0901317, LXRα ligand binding domain
T1 sequence (Q13133 209-447 limits assumed): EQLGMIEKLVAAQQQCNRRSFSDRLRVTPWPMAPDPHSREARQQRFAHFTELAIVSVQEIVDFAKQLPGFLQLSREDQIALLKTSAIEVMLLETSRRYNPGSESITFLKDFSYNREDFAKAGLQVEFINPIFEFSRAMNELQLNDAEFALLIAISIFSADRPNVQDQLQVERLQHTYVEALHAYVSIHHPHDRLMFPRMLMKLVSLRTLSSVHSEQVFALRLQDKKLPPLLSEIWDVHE

[2] = molecular target: T2, LXRβ [NR1H2] ligand binding domain (Homo sapiens, UniProt P55055); assay: Radioligand binding assay with 3H-T0901317, LXRβ ligand binding domain
T2 sequence (P55055 222-460 limits assumed): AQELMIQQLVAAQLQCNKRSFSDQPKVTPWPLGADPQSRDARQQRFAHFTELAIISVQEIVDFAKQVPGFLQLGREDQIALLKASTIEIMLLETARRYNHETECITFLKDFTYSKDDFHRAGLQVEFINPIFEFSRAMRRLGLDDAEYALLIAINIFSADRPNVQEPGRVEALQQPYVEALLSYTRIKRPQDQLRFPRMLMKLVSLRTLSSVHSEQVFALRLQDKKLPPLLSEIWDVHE

[3] = test system: ABCA1 expression (LXR target gene) in THP-1 cells; assay: Expression of LXR target gene ABCA1 in THP-1 monocytic cell line; assay type: cell-based, human; conditions: compound at 10 μM

Structure (SMILES)	Ki [1]	Ki [2]	ABCA1 expression [3]
C[C@H](CCCC(C)(C)O)[C@H]1CC[C@H]2[C@@H]3CC=C4C[C@@H](O)CC[C@]4(C)[C@H]3CC[C@]12C [25-hydroxycholesterol]	4 µM	6.9 µM	increased the expression of ABCA1 as well, albeit at lower levels than T0901317
O=S(=O)(c1ccccc1)N(CC(F)(F)F)c1ccc(C(O)(C(F)(F)F)C(F)(F)F)cc1 [Compound T0901317, T0901317]			increasing the expression of ABCA1
